{"source": "patent US20070060501A1", "about": "(priority 2005, published 2007)", "key": {"[1]": {"system": "mice", "conditions": "cited from earlier work"}, "[2]": {"system": "Sprague-Dawley rats", "assay": "Effect on analgesia produced by a single spinal dose of morphine (tail flick and paw pressure tests)", "type": "in vivo, rat"}, "[3]": {"system": "Sprague-Dawley rats", "assay": "Acute tolerance to spinal morphine: three successive intrathecal injections at 90 minute intervals, cumulative morphine dose-response curves 24 hours later (tail flick and paw pressure tests)", "type": "in vivo, rat", "conditions": "for development of acute tolerance to morphine: ultra-low dose administration, intrathecal"}, "[4]": {"system": "spinal alpha-2 receptors", "type": "in vivo, rat"}, "[5]": {"system": "mouse", "conditions": "in vivo; cited from earlier work"}, "[6]": {"system": "Sprague-Dawley rats", "assay": "Chronic tolerance to spinal morphine: daily intrathecal injection for 5 days, cumulative dose-response curves on day 6 (tail flick and paw pressure tests)", "type": "in vivo, rat"}, "[7]": {"system": "Sprague-Dawley rats", "assay": "Reversal of pre-existing morphine analgesic tolerance by ultra-low dose atipemazole (tail flick and paw pressure tests)"}, "[8]": {"conditions": "mirtazapine 0.02 ng co-injection with morphine 15 μg x 3"}, "[9]": {"conditions": "mirtazapine 0.02 ng with morphine 15 μg x 3"}, "[10]": {"conditions": "single mirtazapine exposure 0.02 ng 30 minutes prior to repeated morphine"}, "[11]": {"conditions": "mirtazapine 2 μg with clonidine 13.3 μg intrathecal"}, "[12]": {"conditions": "group receiving repeated morphine injections (15 μg x 3) vs saline-treated control"}, "[13]": {"conditions": "saline-treated control group, cumulative intrathecal dose-response curve 24 hours after treatment"}, "[14]": {"conditions": "group receiving chronic morphine alone (15 μg for 10 days)"}, "[15]": {"conditions": "group receiving morphine (15 μg for 10 days) with atipemazole 0.8 ng from day 6 for 5 days"}, "[16]": {"conditions": "idazoxan 0.08 ng with morphine 15 μg intrathecal"}, "[17]": {"conditions": "idazoxan ultra-low doses (0.008, 0.016, 0.08 ng) with morphine 15 μg x 3"}}, "note": "Several values for one entry are separate records, joined by “and”; a condition that tells them apart may be missing. Identical values can stand only once. Entries after “also recorded” stand apart in the source; their conditions may differ. Like-named read-outs stand apart in the source and are kept apart here.", "data": [{"smiles": "CC(C)NCC(O)COc1cccc2ccccc12", "note": "(centres unmarked) [propranolol]", "values": [{"measurement": "development of tolerance to morphine analgesia", "setting": "[1]", "value": "suppress the development of tolerance"}]}, {"smiles": "COCCc1ccc(OCC(O)CNC(C)C)cc1", "note": "(centres unmarked) [metoprolol]", "values": [{"measurement": "development of tolerance to morphine analgesia", "setting": "[1]", "value": "suppress the development of tolerance"}]}, {"smiles": "CN1CCN2c3ncccc3Cc3ccccc3C2C1", "note": "(centres unmarked) [mirtazapine]", "values": [{"measurement": "effect on peak morphine analgesia, tail flick test", "setting": "[2]; mirtazapine 0.2 ng with morphine 15 μg intrathecal", "value": "reduced the peak morphine analgesia"}, {"measurement": "effect on morphine analgesia, paw pressure test", "setting": "[2]; mirtazapine 0.02 and 0.2 ng with morphine 15 μg intrathecal", "value": "significantly extended morphine analgesia"}, {"measurement": "effect on duration of morphine analgesia, tail flick test", "setting": "[2]; mirtazapine 0.02 and 0.2 ng with morphine 15 μg intrathecal, particularly at 0.02 ng", "value": "extended morphine analgesia"}, {"measurement": "effect on the increase in morphine ED50, paw pressure test", "setting": "[3]; [8]", "value": "completely prevented the increase in ED50"}, {"measurement": "effect on the increase in morphine ED50, tail flick test", "setting": "[3]; [8]", "value": "partially prevented the increase in ED50"}, {"measurement": "effect on peak morphine analgesia, tail flick test", "setting": "[3]; [9]", "value": "reduced the peak morphine analgesia"}, {"measurement": "effect on the decline of morphine analgesia, paw pressure test", "setting": "[3]; [9]", "value": "arrested the decline of the analgesic effect"}, {"measurement": "effect on the decline of morphine analgesia, tail flick test", "setting": "[3]; [9]", "value": "less effective at arresting the decline"}, {"measurement": "effect on the shift of the morphine dose-response curve, paw pressure test", "setting": "[3]; [9]", "value": "prevented the rightward shift"}, {"measurement": "morphine dose-response curves of morphine and morphine-mirtazapine groups, tail flick test", "setting": "[3]; [9]", "value": "showed an overlap at upper dose range of the opioid agonist"}, {"measurement": "prevention of the right shift of the morphine dose response curve, paw pressure vs tail flick test", "setting": "[3]; single mirtazapine dose 0.02 ng 30 minutes prior to morphine 15 μg x 3", "value": "more effective in the paw pressure test at preventing the right shift"}, {"measurement": "effect on the increase in morphine ED50, paw pressure test", "setting": "[3]; [10]", "value": "completely prevented the increase in ED50"}, {"measurement": "effect on the increase in morphine ED50, tail flick test", "setting": "[3]; [10]", "value": "partially prevented the increase in ED50"}, {"measurement": "development of acute tolerance to morphine", "setting": "[3]", "value": "very effectively inhibit"}, {"measurement": "effect on clonidine analgesia, paw pressure test", "setting": "[4]; 10 μg with clonidine 13.3 μg intrathecal (FIG. 28B)", "value": "almost abolished"}, {"measurement": "effect on clonidine analgesia, paw pressure test", "setting": "[4]; [11]", "value": "almost abolished"}, {"measurement": "effect on peak clonidine analgesia, tail flick test", "setting": "[4]; [11]", "value": "decreased significantly"}]}, {"smiles": "COc1cc2nc(N3CCN(C(=O)c4ccco4)CC3)nc(N)c2cc1OC", "note": "[prazoin]", "values": [{"measurement": "development of tolerance to morphine analgesia", "setting": "[1]", "value": "suppress the development of tolerance"}]}, {"smiles": "Clc1cccc(Cl)c1N=C1NCCN1", "note": "[clonidine]", "values": [{"measurement": "analgesic response to clonidine, paw pressure test", "setting": "[4]; rat, in vivo", "value": "lesser effect"}, {"measurement": "analgesic response to clonidine, tail flick test", "setting": "[4]; rat, in vivo", "value": "maximal analgesic response"}]}, {"smiles": "C=CCN1CC[C@]23c4c5ccc(O)c4O[C@H]2C(=O)CC[C@@]3(O)[C@H]1C5", "note": "[naloxone]", "values": [{"measurement": "effect on alpha-2 receptor agonist analgesia", "setting": "[5]", "value": "does not affect"}]}, {"smiles": "Cc1ccc(N(CC2=NCCN2)c2cccc(O)c2)cc1", "note": "[phentolamine]", "values": [{"measurement": "development of tolerance to morphine analgesia", "setting": "[1]", "value": "suppress the development of tolerance"}]}, {"smiles": "CN1CC[C@]23c4c5ccc(O)c4O[C@H]2[C@@H](O)C=C[C@H]3[C@H]1C5", "note": "[morphine]", "values": [{"measurement": "time of peak analgesia after a single dose of morphine", "setting": "[2]; morphine 15 μg intrathecal, tail flick and paw pressure tests", "value": 30, "unit": "min"}, {"measurement": "decline of the analgesic effect of morphine observed after the first injection, at the end of the 240 minute test period", "setting": "[3]; 3 successive doses of morphine 15 μg intrathecal at 90 minute intervals", "value": "~80", "unit": "%"}, {"measurement": "increase in morphine ED50, paw pressure test", "setting": "[3]; [12]", "value": 4, "unit": "fold"}, {"measurement": "increase in morphine ED50, tail flick test", "setting": "[3]; [12]", "value": "~5", "unit": "fold"}, {"measurement": "cumulative morphine dose-response curve 24 hours after repeated morphine injections", "setting": "[3]; morphine 15 μg x 3 at 90 minute intervals, relative to saline treatment", "value": "shifted to the right; also recorded: parallel right shift"}, {"measurement": "ED50 value of morphine, paw pressure test", "setting": "[3]; [13]", "value": "~7 µg and ~8 µg"}, {"measurement": "ED50 value of morphine, tail flick test", "setting": "[3]; [13]", "value": "~5", "unit": "µg"}, {"measurement": "increase in morphine ED50 values, both tests", "setting": "[6]; chronic treatment with morphine 15 μg/day for 5 days", "value": "~8", "unit": "fold"}, {"measurement": "ED50 values for morphine in the control group", "setting": "[6]; group that had received atipemazole alone (0.8 ng/day) for 5 days, day 6, tail flick and paw pressure tests", "value": "approximately 5 μg"}, {"measurement": "time course of analgesic response on day 5", "setting": "[6]; morphine 15 μg alone at conclusion of chronic treatment", "value": "drastically reduced"}, {"measurement": "analgesic response to morphine on day 1", "setting": "[6]; morphine 15 μg intrathecal, 30 minutes after administration", "value": "maximal level"}, {"measurement": "effect of morphine at 60 minutes post injection, both tests", "setting": "[6]; morphine 15 μg/day alone", "value": "very much reduced"}, {"measurement": "cumulative morphine dose-response curve on day 6 after chronic morphine treatment", "setting": "[6]; morphine 15 μg/day for 5 days", "value": "rightward shift"}, {"measurement": "magnitude of morphine effect with daily drug administration", "setting": "[6]; morphine 15 μg/day intrathecal for 5 days, 30 minutes after administration", "value": "progressively declined towards baseline value by day 5"}, {"measurement": "morphine ED50, paw pressure test", "setting": "[7]; [14]", "value": "~48", "unit": "µg"}, {"measurement": "morphine ED50, tail flick test", "setting": "[7]; [14]", "value": "~47", "unit": "µg"}, {"measurement": "morphine ED50, paw pressure test", "setting": "[7]; [15]", "value": "~8", "unit": "µg"}, {"measurement": "morphine ED50, tail flick test", "setting": "[7]; [15]", "value": "~6", "unit": "µg"}, {"measurement": "acute morphine dose-response curve relative to morphine and atipemazole group", "setting": "[7]; morphine 15 μg alone for 10 days, day 11", "value": "displaced to the right"}]}, {"smiles": "c1ccc2c(c1)OCC(C1=NCCN1)O2", "note": "(centres unmarked) [idazoxan]", "values": [{"measurement": "effect on morphine analgesia, both tail flick and paw pressure tests", "setting": "[2]; [16]", "value": "significantly extended morphine analgesia"}, {"measurement": "effect on peak morphine analgesia, paw pressure test", "setting": "[2]; [16]", "value": "augmented peak morphine analgesia"}, {"measurement": "effect on the shift of the morphine dose-response curve, both tail flick and paw pressure tests", "setting": "[3]; idazoxan 0.008 ng, 0.016 ng with morphine 15 μg x 3", "value": "prevented the rightward shift"}, {"measurement": "effect on the increase in morphine ED50, both tail flick and paw pressure tests", "setting": "[3]; idazoxan 0.008, 0.016 and 0.08 ng co-injection with morphine 15 μg x 3", "value": "prevented the increase in ED50"}, {"measurement": "analgesic response to repeated administration alone", "setting": "[3]; idazoxan alone at 0.008 and 0.016 ng, injected at 90 minute intervals", "value": "no significant analgesic response"}, {"measurement": "effect on peak morphine analgesia, tail flick test", "setting": "[3]; idazoxan lowest dose 0.008 ng with morphine 15 μg x 3", "value": "reduced the peak morphine analgesia"}, {"measurement": "effect on the decline of morphine analgesia, paw pressure test", "setting": "[3]; [17]", "value": "arrested the decline of the analgesic effect"}, {"measurement": "effect on the decline of morphine analgesia, tail flick test", "setting": "[3]; [17]", "value": "less effective at arresting the decline"}, {"measurement": "development of acute tolerance to morphine", "setting": "[3]", "value": "very effectively inhibit"}, {"measurement": "effect on peak clonidine analgesia, tail flick test", "setting": "[4]; idazoxan 10 μg with clonidine 13.3 μg intrathecal", "value": "decreased significantly"}]}]}
